In test [1] the test system is HNE-Induced Lung Hemorrhage. Kind of test: Inhibitory effect on HNE-induced lung hemorrhage in hamsters. The class given is in vivo, male Syrian hamsters. Conditions: Mesocricetus auratus, po, 1 h; administered orally one hour before intratracheal HNE (10 U/100 μL/lung); blood volume in BALF. Here is the method: (2) Inhibitory Effect on HNE-Induced Lung Hemorrhage in Hamsters Test compound or vehicle solution (Polyethyleneglycol 400:ethanol:distilled water=51:16:33) was administered orally to male Syrian hamsters. One hour after administration, animals were anesthetized with sodium pentobarbital (60 mg/kg, i.p.) and their tracheae were exposed. Saline (100 μL/lung) or HNE (10 U/100 μL/lung) were instilled intratracheally. One hour after the instillation of HNE, animals were exsanguinated by cutting the abdominal aorta. The trachea was re-exposed and cannulated, then bronchoalveolar lavage fluid (BALF) was collected by infusing and withdrawing of saline (2.5 mL/animal). Erythrocytes in 0.2 mL of BALF sample were hemolyzed by adding 1.8 mL of distilled water. The lysate was centrifuged (3000 r.p.m., 4° C., 10 minutes), and absorbance of the supernatant at 412 nm was measured spectrophotometrically to calculate blood volume in BALF using a standard curve.

Test [2] deals with T1, Human Neutrophil Elastase (HNE) (Homo sapiens, UniProt P08246).
T1 sequence (P08246 30-267): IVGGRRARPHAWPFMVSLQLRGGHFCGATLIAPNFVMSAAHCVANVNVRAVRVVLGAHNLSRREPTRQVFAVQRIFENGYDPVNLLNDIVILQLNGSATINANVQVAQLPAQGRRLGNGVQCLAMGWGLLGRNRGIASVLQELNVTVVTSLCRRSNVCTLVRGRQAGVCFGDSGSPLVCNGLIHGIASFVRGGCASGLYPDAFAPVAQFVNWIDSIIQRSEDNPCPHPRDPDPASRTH
Kind of test: Inhibitory effects on human neutrophil elastase (HNE). It is filed as biochemical. Conditions: Dixon plot; substrate MeO-Suc-Ala-Ala-Pro-Val-p-nitroanilide; 0.1 M HEPES buffer pH 8.0; 37° C. The method, then:
(1) Inhibitory Effects on Human Neutrophil Elastase (HNE)
Various concentrations of test compounds or DMSO as a vehicle were added to 0.1 M HEPES buffer (pH 8.0) containing the synthetic substrate MeO-Suc-Ala-Ala-Pro-Val-p-nitroanilide (final concentration, 0.1, 0.2 or 0.4 mM), 0.5 M sodium chloride solution and 0.1% Polyethyleneglycol 6000 in a final volume of 180 μL. This mixture was pre-incubated at 37° C. for 5 minutes. Then, the reaction was started by the addition of 20 μL of each enzyme solution (final concentration, 0.2U/mL). The hydrolysis rate of substrate (mO.D./minute) was measured by continuously monitoring absorbance at 405 nm for 10 minutes at 30 seconds intervals. The Ki values were determined by Dixon plot.

One may read the ED50 as the dose that gives a 50% effect, or the effect in half of the subjects. High values mean weaker potency, low ones greater potency. By Ki is commonly meant the dissociation constant of the complex between target and ligand, obtained from inhibition or displacement.

As to `COC(=O)N[C@H](C(=O)N1CCC[C@H]1C(=O)N[C@H](C(=O)c1nn(-c2ccccc2)c(=O)o1)C(C)C)C(C)C` [Example 2, (methoxycarbonyl)-L-valyl-N-[(1S)-([3-phenyl-1,3,4-oxadiazolin-2-one-5-yl]carbonyl)-2-methylpropyl]-L-prolinamide], in test [1], the median effective dose (ED50) amounted to 18.6 mg/kg. Further, in test [2], affinity was put at a Ki of 3.41 nM.

`COC(=O)N[C@H](C(=O)N1CCC[C@H]1C(=O)N[C@H](C(=O)c1nn(Cc2ccsc2)c(=O)o1)C(C)C)C(C)C` [Example 1, (methoxycarbonyl)-L-valyl-N-[(1S)-([3-(thiophen-3-ylmethyl)-1,3,4-oxadiazolin-2-one-5-yl]carbonyl)-2-methylpropyl]-L-prolinamide] gave a Ki in test [2] of 4.27 nM.

The values above are taken from patent US20030087831A1, “1,3,4-Oxadiazolin-2-one derivatives and drugs containing these derivatives as the active ingredient” (priority 1999, published 2003).
